We go through nine cell lines from the supplement of paper PMC10307832.

What all share (test): relative viability (nuclei count vs DMSO), 5 days (fraction); higher = more cells survive
Compound in assay [1]: CC1=CN2C(=O)C=C(N=C2C(=C1)C(C)NC3=CC=CC=C3)N4CCOCC4 [TGX 221] + CC1(C)CCC(c2ccc(Cl)cc2)=C(CN2CCN(c3ccc(C(=O)NS(=O)(=O)c4ccc(N[C@H](CCN5CCOCC5)CSc5ccccc5)c(S(=O)(=O)C(F)(F)F)c4)cc3)CC2)C1 [Navitoclax] (partner 0.5 µM)
The gist of the method:
(§1)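 The day after seeding in 1536-well plates, lung cancer cell lines were treated by pin tool with a single drug, or with a fixed anchor-drug dose together with five library-drug doses (not always all listed) in √10 steps. After 5 days, a combined fix-and-stain solution (final 0.05% Triton X-100, 1% formaldehyde, 1 ug/ml Hoechst) was added. Nuclei counted on 4× images gave relative viability as treated counts over vehicle counts, reported as the median of duplicate plates.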

Compound in assay [2]: O=C(CCCCCCNC(=O)c1cnc(N(c2ccccc2)c2ccccc2)nc1)NO [Ricolinostat] + CC(=O)c1c(C)c2cnc(Nc3ccc(N4CCNCC4)cn3)nc2n(C2CCCC2)c1=O [Palbociclib] (partner 0.5 µM)
A digest of the protocol: as §1

Compound in assay [3]: O=C(CCCCCCNC(=O)c1cnc(N(c2ccccc2)c2ccccc2)nc1)NO [Ricolinostat] + CS(=O)(=O)CCNCc1ccc(-c2ccc3ncnc(Nc4ccc(OCc5cccc(F)c5)c(Cl)c4)c3c2)o1 [Lapatinib] (partner 2 µM)
The gist of the method:
as §1

Compound in assay [4]: O=C(CCCCCCNC(=O)c1cnc(N(c2ccccc2)c2ccccc2)nc1)NO [Ricolinostat] + CCNC(=O)c1noc(-c2cc(C(C)C)c(O)cc2O)c1-c1ccc(CN2CCOCC2)cc1 [Luminespib] (partner 0.01 µM)
The gist of the method: as §1

In the case of HCC-78, the relative viability in assay [1] (first compound 0.08 µM) was 0.654; in assay [1] (first compound 0.253 µM) it was 0.665; in assay [1] (first compound 2.53 µM), 0.457; in assay [1] (first compound 8 µM) it was 0.487; in assay [2] (first compound 0.253 µM), 0.438; in assay [2] (first compound 0.8 µM) it was 0.484. The relative viability stood at 0.479 in assay [2] (first compound 2.53 µM), 0.803 in assay [3] (first compound 0.253 µM), 0.699 in assay [3] (first compound 0.8 µM) and 0.385 in assay [3] (first compound 2.53 µM).

Consider NCI-H1648, for which the relative viability is 0.305 in assay [2] (first compound 0.253 µM), 0.252 in assay [2] (first compound 0.8 µM) and 0.196 in assay [2] (first compound 2.53 µM).

NCI-H1563: the relative viability stood at 0.553 in assay [4] (first compound 0.08 µM); 0.502 in assay [4] (first compound 0.253 µM); 0.508 in assay [4] (first compound 0.8 µM); 0.525 in assay [4] (first compound 2.53 µM); 0.898 in assay [3] (first compound 0.08 µM); 0.927 in assay [3] (first compound 0.253 µM). For the same cell line, the relative viability worked out at 0.97 in assay [3] (first compound 0.8 µM) and 0.834 in assay [3] (first compound 2.53 µM).

As for Calu-6, the relative viability in assay [1] (first compound 0.08 µM) is 0.853; in assay [1] (first compound 0.253 µM), 0.813; in assay [1] (first compound 0.8 µM), 0.872; in assay [1] (first compound 2.53 µM), 0.753; in assay [1] (first compound 8 µM), 0.733; in assay [3] (first compound 0.08 µM), 0.926. For the same cell line, the relative viability in assay [3] (first compound 0.253 µM) came out at 1.03; in assay [3] (first compound 0.8 µM) it was 1.01; in assay [3] (first compound 2.53 µM), 0.785.

On to NCI-H358, for which the relative viability came out at 0.151 in assay [2] (first compound 0.08 µM); 0.147 in assay [2] (first compound 0.253 µM); 0.173 in assay [2] (first compound 0.8 µM); 0.165 in assay [2] (first compound 2.53 µM); 0.269 in assay [4] (first compound 0.253 µM); 0.482 in assay [4] (first compound 0.8 µM). Also, the relative viability in assay [4] (first compound 2.53 µM) amounted to 0.254; in assay [3] (first compound 0.08 µM), 0.311; in assay [3] (first compound 0.253 µM), 0.505; in assay [3] (first compound 0.8 µM) it was 0.501; in assay [3] (first compound 2.53 µM) it was 0.519.

In the case of NCI-H441, the relative viability was 0.494 in assay [1] (first compound 0.08 µM); 0.529 in assay [1] (first compound 0.253 µM); 0.599 in assay [1] (first compound 0.8 µM); 0.998 in assay [1] (first compound 2.53 µM); 0.797 in assay [1] (first compound 8 µM); 0.213 in assay [2] (first compound 0.08 µM). Further, the relative viability in assay [2] (first compound 0.253 µM) is 0.233; in assay [2] (first compound 0.8 µM) it was 0.2; in assay [2] (first compound 2.53 µM) it was 0.234; in assay [4] (first compound 0.253 µM), 0.376; in assay [4] (first compound 0.8 µM), 0.328; in assay [4] (first compound 2.53 µM), 0.373.

As for A549, the relative viability in assay [1] (first compound 0.08 µM) is 1.29; in assay [1] (first compound 0.253 µM), 1.17; in assay [1] (first compound 0.8 µM) it was 1.18; in assay [1] (first compound 2.53 µM) it was 1.18; in assay [1] (first compound 8 µM), 1.11; in assay [3] (first compound 0.08 µM) it was 0.977. For the same cell line, the relative viability amounted to 0.887 in assay [3] (first compound 0.253 µM), 0.859 in assay [3] (first compound 0.8 µM) and 0.72 in assay [3] (first compound 2.53 µM).

For the cell line LCLC-103H, the relative viability in assay [2] (first compound 0.08 µM) was determined as 0.472; in assay [2] (first compound 0.253 µM), 0.413; in assay [2] (first compound 0.8 µM) it was 0.495; in assay [2] (first compound 2.53 µM), 0.514; in assay [4] (first compound 0.08 µM) it was 0.869; in assay [4] (first compound 0.253 µM) it was 0.887. In addition, the relative viability in assay [4] (first compound 0.8 µM) is 0.862; in assay [4] (first compound 2.53 µM), 0.829.

On to IA-LM, for which the relative viability came to 0.722 in assay [1] (first compound 0.08 µM); 0.707 in assay [1] (first compound 0.253 µM); 1.02 in assay [1] (first compound 0.8 µM); 0.849 in assay [1] (first compound 2.53 µM); 1.02 in assay [1] (first compound 8 µM); 0.841 in assay [3] (first compound 0.253 µM). Further, the relative viability in assay [3] (first compound 0.8 µM) was determined as 0.542; in assay [3] (first compound 2.53 µM), 0.398.
